Key:
[1] = system: sheep; test: Toxicity to the host animal, sheep systemic test; type: in vivo; set-up: key: N: none
Procedure: (§1) Tests are carried out in sheep using the test method described supra in the Guinea Pig Test description. Test compound is administered by intraperitoneal or intravenous injection or intraruminally; blood samples are drawn at 24 hours in these tests.

[2] = system: Spodoptera eridania; test: Outdoor pot tests against Southern armyworm; type: in vivo
From the text: Table XV compares the effectiveness and persistence of A83543A treatment with that of methomyl in outdoor pot tests against Southern armyworm.

[3] = system: CLH (corn leafhopper); test: Greenhouse test against CLH; type: in vivo, Dalbulus maidis
Procedure: (§2) Each test compound was formulated by dissolving the compound in an acetone/alcohol (1:1) mixture containing 23 g of "Toximul R" (sulfonate/nonionic emulsifier blend) and 13 g of "Toximul S" (sulfonate/nonionic emulsifier blend) per liter. These mixtures were then diluted with water to give the indicated concentrations.
(§3) Additional insects were evaluated using similar formulations and evaluation procedures, with the exceptions noted.
(§4) After standard exposure periods, percent mortality was evaluated.

[4] = system: guinea pigs; test: Toxicity to the host animal, guinea pig systemic test; type: in vivo; set-up: key: N: none
Procedure: Adult guinea pigs are used in this test system. The compounds to be tested are dissolved in aqueous polyvinyl pyrrolidone or in polyethylene glycol 200, and an appropriate amount of the solution is administered either orally or by intraperitoneal injection.
(§5) Blood is drawn from the guinea pigs at 30 minutes except as noted, and the samples of blood are centrifuged. Dental wicks are saturated with the blood serum, and then exposed in Petri dishes to adult stable flies; blow fly larvae are exposed in test tubes. After 24 and 48 hours, the insects are examined, and the number of dead are counted. The results of the tests are recorded as the percent of the insects which are killed.

[5] = system: adult stable fly (ASF); test: Sheep systemic test, adult stable fly; type: in vivo; conditions: Stomoxys calcitrans, 24 h
Procedure: as §5, §1

[6] = system: blow fly larvae (LBF); test: Sheep systemic test, blow fly larvae; type: in vivo
Procedure: as §5, §1

[7] = system: neonate CBW (cotton bollworm) larvae; test: Percent control of neonate CBW larvae by A83543 components, topical pipet method; type: in vivo, Heliothis zea; conditions: topical, 24 h, read-out: Percent Control
Procedure: as §2, §3
(§6) After standard exposure periods, percent mortality was evaluated. The following abbreviations are used:
^1 Treatments with the same letter in parentheses are similar at the
^2 Topical pipet method with 20 larve/replicate and 4 replicates; one
day between treatment and observation.

[8] = system: CBW (cotton bollworm) ova; test: Topical treatment of CBW eggs (ova); type: in vivo, Heliothis zea; conditions: 144 h, 6 days
Procedure: as §2, §3, §6
^b Mean of two replicates tested
^e Eggs topically treated with A83543A and held until control eggs

[9] = system: CRW (Southern corn rootworm); test: Greenhouse test against CRW; type: in vivo, Diabrotica undecimpunctata howardi
Procedure: as §2, §3, §4

Question: Which results are given for `CC[C@H]1CCC[C@H](O[C@H]2CC[C@H](N(C)C)[C@@H](C)O2)[C@@H](C)C(=O)C2=C[C@@H]3[C@@H](C=C[C@@H]4C[C@@H](O[C@@H]5O[C@@H](C)[C@H](OC)[C@@H](OC)[C@H]5OC)C[C@@H]34)[C@@H]2CC(=O)O1` [A83543A]?
Answer: Tox ([1]; 1.0 mg/kg IV): N; Tox ([1]; 10 mg/kg IP): N; Tox ([1]; 10 mg/kg IR): N; Tox ([1]; 30 mg/kg IP): N; Tox ([1]; 30 mg/kg IR): N; Tox ([1]; 50 mg/kg IP): N; Tox ([1]; 50 mg/kg IR): N; Tox ([1]; 2 × 25 mg/kg IR): N; mortality at 63 ppm ([2]; 24 h, 1 day after treatment): 100%; mortality at 125 ppm ([2]; 24 h, 1 day after treatment): 100%; mortality at 250 ppm ([2]; 24 h, 1 day after treatment): 100%; mortality at 500 ppm ([2]; 24 h, 1 day after treatment): 100%; mortality at 63 ppm ([2]; 120 h, 5 days after treatment): 88%; mortality at 125 ppm ([2]; 120 h, 5 days after treatment): 88%; mortality at 250 ppm ([2]; 120 h, 5 days after treatment): 95%; mortality at 500 ppm ([2]; 120 h, 5 days after treatment): 100%; mortality at 63 ppm ([2]; 168 h, 7 days after treatment): 90%; mortality at 125 ppm ([2]; 168 h, 7 days after treatment): 95%; mortality at 250 ppm ([2]; 168 h, 7 days after treatment): 100%; mortality at 500 ppm ([2]; 168 h, 7 days after treatment): 100%; mortality at 63 ppm ([2]; 336 h, 14 days after treatment): 5%; mortality at 125 ppm ([2]; 336 h, 14 days after treatment): 90%; mortality at 250 ppm ([2]; 336 h, 14 days after treatment): 100%; mortality at 500 ppm ([2]; 336 h, 14 days after treatment): 100%; inhibition at 50 ppm ([3]; 50 ppm): 0%; inhibition at 100 ppm ([3]; 100 ppm): 30%; inhibition at 200 ppm ([3]; 200 ppm): 90%; Tox ([4]; 10 mg/kg IP): N; Tox ([4]; 20 mg/kg IP): N; Tox ([4]; 30 mg/kg IP): N; Tox ([4]; 50 mg/kg IP): N; Tox ([4]; 50 mg/kg OR (oral)): N; mortality at 1 mg/kg ([5]; 1.0 mg/kg IV): 10%; mortality at 10 mg/kg ([5]; 10 mg/kg IP): 0%; mortality at 10 mg/kg ([5]; 10 mg/kg IR): 0%; mortality at 30 mg/kg ([5]; 30 mg/kg IP): 0%; mortality at 30 mg/kg ([5]; 30 mg/kg IR): 30%; mortality at 50 mg/kg ([5]; 50 mg/kg IR): 70%; mortality at 25 mg/kg ([5]; 2 × 25 mg/kg IR): 90%; LBF activity (% mortality) ([6]; 1.0 mg/kg IV): 25%; LBF activity (% mortality) ([6]; 10 mg/kg IP, 1440 min): 0%; LBF activity (% mortality) ([6]; 10 mg/kg IR, 1440 min): 0%; LBF activity (% mortality) ([6]; 30 mg/kg IP, 1440 min): 80%; LBF activity (% mortality) ([6]; 30 mg/kg IR, 1440 min): 100%; LBF activity (% mortality) ([6]; 50 mg/kg IP, 1440 min): 20%; LBF activity (% mortality) ([6]; 50 mg/kg IR, 1440 min): 100%; LBF activity (% mortality) ([6]; 2 × 25 mg/kg IR, 1440 min): 100%; mortality at 0.5 ppm [7]: 55%; mortality at 1 ppm [7]: 100%; mortality at 5 ppm [7]: 100%; mortality at 10 ppm [7]: 100%; inhibition at 10 ppm ([8]; 10.00 ppm): 0%; inhibition at 50 ppm ([8]; 50.00 ppm): 0%; inhibition at 100 ppm ([8]; 100.00 ppm): 30%; inhibition at 3 ppm ([9]; 3 ppm, second series): 0%; inhibition at 3.75 ppm ([9]; 3.75 ppm): 0%; inhibition at 6 ppm ([9]; 6 ppm, second series): 30%; inhibition at 7.5 ppm ([9]; 7.5 ppm): 10%; inhibition at 15 ppm ([9]; 15 ppm): 50%; inhibition at 30 ppm ([9]; 30 ppm): 100%
